Laboratory results as given in ChEMBL document CHEMBL5532672, “Discovery of 2-Ethoxy-5-isobutyramido-N-1-substituted Benzamide Derivatives as Selective Kv2.1 Inhibitors with In Vivo Neuroprotective Effects” (J Med Chem, 2024).

Assays:
HEK293 [1] = experiment: cells; conditions: Homo sapiens, HEK293, read-out: Activity; at 10 mM
Description: Anti-apoptotic activity in HEK293 cells harbouring Kv2.1 assessed as viable cells at 10 mM by annexin-V and propidium staining based flow cytometry analysis (Rvb = 99.8% )

[2] = target: T1, Voltage-gated potassium channel KCNC1 (Homo sapiens, UniProt P48547); experiment: Inhibition of KV3.1 (unknown origin) by whole cell patch-clamp assay
T1 sequence (P48547 whole entry): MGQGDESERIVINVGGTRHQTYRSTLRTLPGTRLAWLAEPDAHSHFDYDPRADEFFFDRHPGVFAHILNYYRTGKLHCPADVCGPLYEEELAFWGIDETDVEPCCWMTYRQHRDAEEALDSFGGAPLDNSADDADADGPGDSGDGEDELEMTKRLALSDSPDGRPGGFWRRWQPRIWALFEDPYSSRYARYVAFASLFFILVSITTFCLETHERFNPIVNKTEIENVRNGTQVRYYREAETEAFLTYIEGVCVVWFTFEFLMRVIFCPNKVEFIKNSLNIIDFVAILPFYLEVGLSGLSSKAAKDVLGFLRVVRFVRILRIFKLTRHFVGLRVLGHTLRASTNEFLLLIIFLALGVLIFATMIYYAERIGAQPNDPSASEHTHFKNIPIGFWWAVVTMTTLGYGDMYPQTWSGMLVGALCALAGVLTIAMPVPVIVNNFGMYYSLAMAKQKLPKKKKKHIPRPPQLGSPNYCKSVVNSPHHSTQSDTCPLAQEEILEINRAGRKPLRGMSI

[3] = AUC (0 to t) in Sprague-Dawley rat at 5 mg/kg, po measured upto 24 hrs by LC/MS/MS analysis; format: ADME, organism-based; conditions: in vivo
[4] = AUC (0 to t) in Sprague-Dawley rat at 0.5 mg/kg, iv measured upto 24 hrs by LC/MS/MS analysis; format: ADME, organism-based; conditions: in vivo
[5] = MRT (0 to infinity) in Sprague-Dawley rat at 5 mg/kg, po measured upto 24 hrs by LC/MS/MS analysis; format: ADME, organism-based; conditions: in vivo
HEK293 [6] = experiment: Anti-apoptotic activity in HEK293 cells harbouring Kv2.1 assessed as viable cells at 3 uM by annexin-V and propidium staining based flow cytometry analysis (reference value: 99.8%); format: functional; conditions: Homo sapiens, read-out: Activity
[7] = Clearance in Sprague-Dawley rat at 0.5 mg/kg, iv measured upto 24 hrs by LC/MS/MS analysis; format: ADME, organism-based; conditions: in vivo
[8] = Cmax in Sprague-Dawley rat at 5 mg/kg, po measured upto 24 hrs by LC/MS/MS analysis; format: ADME, organism-based; conditions: in vivo
HEK293 [9] = experiment: Anti-apoptotic activity in HEK293 cells harbouring Kv2.1 assessed as viable cells at 0.3 uM by annexin-V and propidium staining based flow cytometry analysis (reference value: 99.8%); format: functional; conditions: Homo sapiens, read-out: Activity
[10] = MRT (0 to t) in Sprague-Dawley rat at 5 mg/kg, po measured upto 24 hrs by LC/MS/MS analysis; format: ADME, organism-based; conditions: in vivo
[11] = Cmax in Sprague-Dawley rat at 0.5 mg/kg, iv measured upto 24 hrs by LC/MS/MS analysis; format: ADME, organism-based; conditions: in vivo
[12] = MRT (0 to infinity) in Sprague-Dawley rat at 0.5 mg/kg, iv measured upto 24 hrs by LC/MS/MS analysis; format: ADME, organism-based; conditions: in vivo
[13] = Brain concentration in rat at 1 mg/kg, iv measured after 15 mins; format: ADME, organism-based; conditions: read-out: Ct
[14] = Terminal elimination half life in Sprague-Dawley rat at 5 mg/kg, po measured upto 24 hrs by LC/MS/MS analysis; format: ADME, organism-based; conditions: in vivo, read-out: beta t1/2 (converted)
[15] = Tmax in Sprague-Dawley rat at 5 mg/kg, po measured upto 24 hrs by LC/MS/MS analysis; format: ADME, organism-based; conditions: in vivo
[16] = target: Potassium voltage-gated channel subfamily A member 5 (Homo sapiens, UniProt P22460); experiment: Inhibition of KV1.5 (unknown origin) by whole cell patch-clamp assay
Sequence of Potassium voltage-gated channel subfamily A member 5 (P22460 whole entry): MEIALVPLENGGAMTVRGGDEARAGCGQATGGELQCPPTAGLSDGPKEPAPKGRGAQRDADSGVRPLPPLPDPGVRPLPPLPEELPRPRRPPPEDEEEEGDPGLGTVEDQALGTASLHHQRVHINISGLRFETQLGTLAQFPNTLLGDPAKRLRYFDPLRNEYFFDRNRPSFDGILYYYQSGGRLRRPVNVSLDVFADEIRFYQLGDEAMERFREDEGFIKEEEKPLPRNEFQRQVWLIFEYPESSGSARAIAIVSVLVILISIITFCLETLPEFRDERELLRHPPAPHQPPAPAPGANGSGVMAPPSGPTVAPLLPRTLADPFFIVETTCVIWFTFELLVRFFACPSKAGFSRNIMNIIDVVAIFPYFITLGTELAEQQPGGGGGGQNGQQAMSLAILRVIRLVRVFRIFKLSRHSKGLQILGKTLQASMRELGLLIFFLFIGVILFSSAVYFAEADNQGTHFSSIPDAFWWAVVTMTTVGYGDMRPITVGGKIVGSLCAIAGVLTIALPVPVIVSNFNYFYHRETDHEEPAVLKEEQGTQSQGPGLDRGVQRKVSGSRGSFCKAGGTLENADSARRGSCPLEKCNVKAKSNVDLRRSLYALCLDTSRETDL

[17] = Brain concentration in rat at 5 mg/kg, po measured after 30 mins; format: ADME, organism-based; conditions: read-out: Ct
[18] = AUC (0 to infinity) in Sprague-Dawley rat at 0.5 mg/kg, iv measured upto 24 hrs by LC/MS/MS analysis; format: ADME, organism-based; conditions: in vivo
[19] = target: Voltage-gated inwardly rectifying potassium channel KCNH2 (Homo sapiens, UniProt Q12809); experiment: Inhibition of human ERG by whole cell patch-clamp assay; format: toxicity
Sequence of Voltage-gated inwardly rectifying potassium channel KCNH2 (Q12809 whole entry): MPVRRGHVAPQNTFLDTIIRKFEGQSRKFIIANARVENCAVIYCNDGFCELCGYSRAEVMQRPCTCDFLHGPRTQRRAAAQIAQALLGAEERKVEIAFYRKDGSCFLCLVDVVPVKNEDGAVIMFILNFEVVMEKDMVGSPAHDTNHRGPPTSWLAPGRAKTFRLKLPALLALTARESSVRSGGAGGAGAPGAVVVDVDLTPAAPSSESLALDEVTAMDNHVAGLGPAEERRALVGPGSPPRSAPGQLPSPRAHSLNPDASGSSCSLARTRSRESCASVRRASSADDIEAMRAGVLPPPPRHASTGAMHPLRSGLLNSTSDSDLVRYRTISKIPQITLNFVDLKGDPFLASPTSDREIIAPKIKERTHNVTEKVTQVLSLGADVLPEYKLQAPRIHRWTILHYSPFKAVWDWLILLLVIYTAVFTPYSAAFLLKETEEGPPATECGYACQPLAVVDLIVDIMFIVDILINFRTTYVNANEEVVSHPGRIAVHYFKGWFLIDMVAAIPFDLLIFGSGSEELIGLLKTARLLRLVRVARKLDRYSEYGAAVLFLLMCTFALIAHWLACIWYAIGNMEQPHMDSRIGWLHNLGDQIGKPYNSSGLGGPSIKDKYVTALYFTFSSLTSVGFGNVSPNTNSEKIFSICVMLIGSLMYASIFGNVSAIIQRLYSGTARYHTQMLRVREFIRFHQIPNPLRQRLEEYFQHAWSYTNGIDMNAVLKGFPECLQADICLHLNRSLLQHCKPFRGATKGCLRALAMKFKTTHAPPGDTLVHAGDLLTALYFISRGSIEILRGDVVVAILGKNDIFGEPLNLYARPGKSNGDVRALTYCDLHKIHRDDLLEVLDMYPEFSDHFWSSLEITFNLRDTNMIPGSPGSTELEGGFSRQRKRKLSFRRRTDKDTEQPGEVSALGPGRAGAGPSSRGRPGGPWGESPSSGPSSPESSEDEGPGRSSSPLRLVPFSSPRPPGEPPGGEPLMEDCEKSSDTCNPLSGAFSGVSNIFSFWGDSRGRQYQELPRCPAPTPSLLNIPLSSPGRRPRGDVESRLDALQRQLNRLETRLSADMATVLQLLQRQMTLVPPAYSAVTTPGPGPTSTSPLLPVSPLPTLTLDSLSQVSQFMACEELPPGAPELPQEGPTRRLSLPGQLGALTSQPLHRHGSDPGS

[20] = Brain concentration in rat at 1 mg/kg, iv measured after 30 mins; format: ADME, organism-based; conditions: read-out: Ct
[21] = Plasma concentration in rat at 5 mg/kg, po measured after 30 mins; format: ADME, organism-based
[22] = Apparent volume of distribution in Sprague-Dawley rat at […], iv measured upto 24 hrs by LC/MS/MS analysis; format: ADME, organism-based; conditions: in vivo, read-out: Vz
[23] = Terminal elimination half life in Sprague-Dawley rat at 0.5 mg/kg, iv measured upto 24 hrs by LC/MS/MS analysis; format: ADME, organism-based; conditions: in vivo, read-out: beta t1/2 (converted)
[24] = Oral bioavailability in Sprague-Dawley rat at 5 mg/kg measured upto 24 hrs by LC/MS/MS analysis; format: ADME, organism-based; conditions: in vivo
[25] = AUC (0 to infinity) in Sprague-Dawley rat at 5 mg/kg, po measured upto 24 hrs by LC/MS/MS analysis; format: ADME, organism-based; conditions: in vivo
[26] = Plasma concentration in rat at 1 mg/kg, iv measured after 30 mins; format: ADME, organism-based
[27] = Plasma concentration in rat at 1 mg/kg, iv measured after 15 mins; format: ADME, organism-based
[28] = target: T2, Potassium voltage-gated channel subfamily B member 1 (Homo sapiens, UniProt Q14721); experiment: Inhibition of human KV2.1 stably expressed in HEK293 cells by whole cell patch-clamp assay; format: cell-based
T2 sequence (Q14721 whole entry): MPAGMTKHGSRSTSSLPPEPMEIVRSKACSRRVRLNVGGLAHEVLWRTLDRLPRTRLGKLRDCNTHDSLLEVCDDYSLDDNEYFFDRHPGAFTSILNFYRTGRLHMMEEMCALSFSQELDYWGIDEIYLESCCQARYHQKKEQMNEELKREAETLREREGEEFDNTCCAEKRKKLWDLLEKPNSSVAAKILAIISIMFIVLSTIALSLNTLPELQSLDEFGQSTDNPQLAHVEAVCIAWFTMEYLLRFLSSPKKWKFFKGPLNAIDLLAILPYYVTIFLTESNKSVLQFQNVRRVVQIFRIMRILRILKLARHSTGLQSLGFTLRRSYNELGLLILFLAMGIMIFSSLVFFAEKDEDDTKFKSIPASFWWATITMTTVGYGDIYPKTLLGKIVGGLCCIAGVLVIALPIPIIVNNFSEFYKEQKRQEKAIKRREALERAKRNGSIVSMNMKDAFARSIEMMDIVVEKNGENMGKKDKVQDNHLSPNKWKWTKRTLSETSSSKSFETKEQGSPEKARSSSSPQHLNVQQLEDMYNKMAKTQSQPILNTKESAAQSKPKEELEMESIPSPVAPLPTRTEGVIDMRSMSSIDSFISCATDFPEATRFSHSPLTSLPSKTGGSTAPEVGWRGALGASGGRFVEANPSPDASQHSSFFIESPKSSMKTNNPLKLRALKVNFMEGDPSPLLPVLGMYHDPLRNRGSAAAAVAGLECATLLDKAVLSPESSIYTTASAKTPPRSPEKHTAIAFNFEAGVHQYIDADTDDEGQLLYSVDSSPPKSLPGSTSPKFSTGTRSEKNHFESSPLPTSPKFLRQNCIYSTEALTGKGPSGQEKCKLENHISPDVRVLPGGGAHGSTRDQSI

For CC[N+](CC)(CC)CC [TETRYLAMMONIUM], which viability at 10000 µM (HEK293 [1]) is on record?
The viability at 10000 µM was 58.4%.

Which IC50 [2] does the source give for CCOc1ccc(NC(=O)C(C)C)cc1C(=O)NC(C)c1cccc(NC)c1 (stereo not drawn) here?
Its IC50 is over 30 µM.

And the AUC(0-t) at 24 h [3]?
The AUC(0-t) at 24 h was 337 ng·h/mL.

What about the AUC(0-t) at 24 h [4] of the same compound?
Its AUC(0-t) at 24 h is 174 ng·h/mL.

What about the MRT inf [5] of the same compound?
The MRT inf was 2.52 h.

And the viability at 3 µM (HEK293 [6])?
The viability at 3 µM was 55.4%.

And the clearance [7]?
Its clearance is 48 mL/min/kg.

And the Cmax [8]?
Its Cmax is 147 ng/mL.

What about the viability at 0.3 µM (HEK293 [9]) of the same compound?
The viability at 0.3 µM was 62%.

And the MRT last at 24 h [10]?
The MRT last at 24 h was 2.05 h.

What about the Cmax [11] of the same compound?
Its Cmax is 693 ng/mL.

What about the MRT inf [12] of the same compound?
Its MRT inf is 1.39 h.

And the concentration at 0.25 h [13]?
The concentration at 0.25 h was 38.2 ng/g.

What about the half-life [14] of the same compound?
The half-life was 1.89 h.

And the Tmax [15]?
The Tmax was 0.65 h.

What about the IC50 [16] of the same compound?
Its IC50 is 9.2 µM.

And the concentration at 0.5 h [17]?
The concentration at 0.5 h was 54.9 ng/g.

And the AUC(0-inf) [18]?
The AUC(0-inf) was 174 ng·h/mL.

What about the IC50 [19] of the same compound?
Its IC50 is 30 µM.

And the concentration at 0.5 h [20]?
The concentration at 0.5 h was 14.6 ng/g.

And the concentration at 0.5 h [21]?
The concentration at 0.5 h was 580 ng/mL.

And the Vd [22]?
The Vd was 2.1 L/kg.

What about the half-life [23] of the same compound?
The half-life was 0.51 h.

What about the bioavailability [24] of the same compound?
The bioavailability was 20.4%.

And the AUC(0-inf) [25]?
Its AUC(0-inf) is 355 ng·h/mL.

And the concentration at 0.5 h [26]?
The concentration at 0.5 h was 235 ng/mL.

And the concentration at 0.25 h [27]?
Its concentration at 0.25 h is 539 ng/mL.

What about the IC50 [28] of the same compound?
Its IC50 is 0.07 µM.
